Like-named read-outs stand apart in the source and are kept apart here.
Tests used:
[1] = system: mature Palm trees; experiment: Phytotoxicity to sprayed palm trees; format: in vivo; conditions: spray on mature palm trees
Experimental: Large-scale examples of the product's use and phytotoxicity at the same concentration (about 11.5%) as used in previous examples were also conducted by Palms of Hawaii. A five-gallon back pack sprayer equipped with a mist spray nozzle was used to spray mature Palm trees being prepared for distribution with about a gallon of spray each.
Upon spraying palm trees having frogs, frogs leap off the root balls and crowns and from the junctions between the fronds and tree trunks. The nurseryman rated the complete removal, if not extermination of all frogs from the trees as excellent.

[2] = system: common plants; design: key: severe: most if not all the leaves turned black; flowers and leaves became bleached and recovery was slow; moderate: young leaves and new shoots burned; the outer edges of leaves burned and dropped; dark brown spots appeared where acid may have concentrated; and recovery of the plants were slow; slight: the leaves were spotted white, or lesions formed on the trunk; conditions: citric acid 25%, three days after treatment, cited from earlier work
[3] = system: Coqui; conditions: in vivo; cited from earlier work
[4] = system: frogs; experiment: Frog killing time with different concentrations; format: in vivo, Eleutherodactylus coqui
Experimental: Additionally, this formulation killed 10 out of 10 frogs within about 15 minutes.

[5] = system: human skin; experiment: Contact with human skin; format: in vivo; conditions: solution with pH of less than 0.5
Experimental: As discussed above, AGIIS has relatively less dehydrating properties (such as charring sucrose) as compared to the saturated solution of CaSO4 in the same concentration of H2SO4. […] AGIIS has low volatility at room temperature and pressure.
In view of the need to find new phytogenic friendly alternatives for controlling the spread of Coqui frogs, a commercially available food sanitation product (i.e. Acidic Calcium Sulfate (“ACS”) was evaluated for inclusion in the current inventory of chemicals that can be applied as sprays. ACS and functional equivalents thereof are made from ingredients that are generally regarded as safe (“GRAS”), and is approved for use in food by the FDA and USDA. Although not wanting to be bound by theory, the efficacy of this product stems from its very unique characteristic of being able to donate a very high activity of hydrogen ions (low pH), while at the same time, having very low oxidative effects on plants and human skin. For example, a five (5) normal concentration of ACS having a pH of approximately zero may be held in the human hand without harm to the person holding the acid. In contrast, when very small amounts are applied to the skin of Coqui frogs it is quickly absorbed and respiration is immediately impaired with lethal results. […]

In the case of `O=C(O)CC(O)(CC(=O)O)C(=O)O` [citric acid], the “phytotoxicity to palm trees” value [1] is given as “typically causes browning”, the phytotoxicity rating ([2]; guava plant, bromeliad, dendrobium orchid and leatherleaf fern) is given as “moderate” and the phytotoxicity rating ([2]; passion fruit and payaya) is given as “slight”. The phytotoxicity rating ([2]; streptocarpus, calathea and eggplants) was “severe”.

In the case of `[Ca+2].[OH-].[OH-]` [hydrated lime], the “effectiveness in eradicating frogs” value [3] is given as “not entirely effective”.

For `CCC(=O)O` [propionic acid], the “killing speed compared with standard citric acid” value ([4]; 5% solution) was “killed equally fast”, the “killing speed compared with standard citric acid” value ([4]; 10% solution) was “killed frogs faster than standard citric acid” and the lethality to frogs ([4]; concentrations from about 5% to about 10%) was “lethal to the frogs in the test group”.

For `O=S(=O)(O)O` [sulfuric acid], the “irritation of hand put into solution” value [5] was “an irritation would occur within a relatively short span of time”.
